According to patent US12497365B2, “4-pyridinyl formamide compound or derivative thereof, preparation method therefor, herbicidal composition and use thereof” (Qingdao Kingagroot Chemical Compound Co., Ltd., priority 2019, dated 2025):

Legend:
Assay in all cases: Weeding effect in post-emergence stage
Format in all cases: in vivo
Conditions in all cases: active ingredient 2000 g/ha, 3 weeks after application, fresh weight control rate
[1] = test system: Amaranthus retroflexus L.
Method in brief: (§1)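 Seeds were covered with 0.5-2 cm soil and raised in a greenhouse for 2 weeks. At the 2-3 leaf stage, compound formulations (acetone, Tween 80, 1.5 liter/ha methyl oleate EC, water) were spray-tower applied at 2000-125 g/ha. After 3 further weeks, fresh weight control was graded.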

[2] = test system: Descurainia sophia
Method in brief: as §1

[3] = test system: Abutilon theophrasti
Method in brief: as §1

[4] = test system: Chenopodium album
Method in brief: as §1

Structure (SMILES)	Weeding effect, activity level (growth control rate), Amaranthus retroflexus L. [1]	Weeding effect, activity level (growth control rate), Descurainia sophia [2]	Weeding effect, activity level (growth control rate), Abutilon theophrasti [3]	Weeding effect, activity level (growth control rate), Chenopodium album [4]
Cn1nnnc1NC(=O)c1ccnc(-c2ccc(N3CCOCC3)nc2)c1Cl [Compound 1-146]	5 (Level 5: growth control rate is above 85%)	5 (Level 5: growth control rate is above 85%)	5 (Level 5: growth control rate is above 85%)	5 (Level 5: growth control rate is above 85%)
Cn1nnnc1NC(=O)c1ccnc(-c2ccncc2)c1Cl [Compound 1-147]	5 (Level 5: growth control rate is above 85%)	5 (Level 5: growth control rate is above 85%)	5 (Level 5: growth control rate is above 85%)	5 (Level 5: growth control rate is above 85%)
Cn1nnnc1NC(=O)c1ccnc(-c2ccnc(C#N)c2)c1Cl [Compound 1-148]	5 (Level 5: growth control rate is above 85%)	5 (Level 5: growth control rate is above 85%)	5 (Level 5: growth control rate is above 85%)	5 (Level 5: growth control rate is above 85%)
Cn1nnnc1NC(=O)c1ccnc(-c2ccnc(F)c2)c1Cl [Compound 1-149]	5 (Level 5: growth control rate is above 85%)	5 (Level 5: growth control rate is above 85%)	5 (Level 5: growth control rate is above 85%)	5 (Level 5: growth control rate is above 85%)
Cn1nnnc1NC(=O)c1ccnc(-c2ccncc2F)c1Cl [Compound 1-150]	5 (Level 5: growth control rate is above 85%)	5 (Level 5: growth control rate is above 85%)	5 (Level 5: growth control rate is above 85%)	5 (Level 5: growth control rate is above 85%)
Cn1nnnc1NC(=O)c1ccnc(-c2ccnc(Cl)c2)c1Cl [Compound 1-151]	5 (Level 5: growth control rate is above 85%)	5 (Level 5: growth control rate is above 85%)	5 (Level 5: growth control rate is above 85%)	5 (Level 5: growth control rate is above 85%)
Cn1nnnc1NC(=O)c1ccnc(-c2ccnc(Cl)c2Cl)c1Cl [Compound 1-152]	5 (Level 5: growth control rate is above 85%)	5 (Level 5: growth control rate is above 85%)	5 (Level 5: growth control rate is above 85%)	5 (Level 5: growth control rate is above 85%)
Cn1nnnc1NC(=O)c1ccnc(-c2cc(Cl)nc(Cl)c2)c1Cl [Compound 1-153]	5 (Level 5: growth control rate is above 85%)	5 (Level 5: growth control rate is above 85%)	5 (Level 5: growth control rate is above 85%)	5 (Level 5: growth control rate is above 85%)
Cn1nnnc1NC(=O)c1ccnc(-c2ccc(F)nn2)c1Cl [Compound 1-154]	5 (Level 5: growth control rate is above 85%)	5 (Level 5: growth control rate is above 85%)	5 (Level 5: growth control rate is above 85%)	5 (Level 5: growth control rate is above 85%)
Cn1nnnc1NC(=O)c1ccnc(-c2ccc(C#N)nn2)c1Cl [Compound 1-155]	5 (Level 5: growth control rate is above 85%)	5 (Level 5: growth control rate is above 85%)	5 (Level 5: growth control rate is above 85%)	5 (Level 5: growth control rate is above 85%)
Cn1nnnc1NC(=O)c1ccnc(-c2cncnc2)c1Cl [Compound 1-156]	5 (Level 5: growth control rate is above 85%)	5 (Level 5: growth control rate is above 85%)	5 (Level 5: growth control rate is above 85%)	5 (Level 5: growth control rate is above 85%)
Cn1nnnc1NC(=O)c1ccnc(-c2cnc(Cl)nc2)c1Cl [Compound 1-157]	5 (Level 5: growth control rate is above 85%)	5 (Level 5: growth control rate is above 85%)	5 (Level 5: growth control rate is above 85%)	5 (Level 5: growth control rate is above 85%)
Cn1nnnc1NC(=O)c1ccnc(-c2cnc(F)nc2)c1Cl [Compound 1-158]	5 (Level 5: growth control rate is above 85%)	5 (Level 5: growth control rate is above 85%)	5 (Level 5: growth control rate is above 85%)	5 (Level 5: growth control rate is above 85%)
Cn1nnnc1NC(=O)c1ccnc(-c2cnc(C#N)nc2)c1Cl [Compound 1-159]	5 (Level 5: growth control rate is above 85%)	5 (Level 5: growth control rate is above 85%)	5 (Level 5: growth control rate is above 85%)	5 (Level 5: growth control rate is above 85%)
Cn1nnnc1NC(=O)c1ccnc(-c2cnc(N)nc2)c1Cl [Compound 1-160]	5 (Level 5: growth control rate is above 85%)	5 (Level 5: growth control rate is above 85%)	5 (Level 5: growth control rate is above 85%)	5 (Level 5: growth control rate is above 85%)
COc1ncc(-c2nccc(C(=O)Nc3nnnn3C)c2Cl)cn1 [Compound 1-161]	5 (Level 5: growth control rate is above 85%)	5 (Level 5: growth control rate is above 85%)	5 (Level 5: growth control rate is above 85%)	5 (Level 5: growth control rate is above 85%)
COc1ncc(-c2nccc(C(=O)Nc3nnnn3C)c2Cl)c(OC)n1 [Compound 1-162]	5 (Level 5: growth control rate is above 85%)	5 (Level 5: growth control rate is above 85%)	5 (Level 5: growth control rate is above 85%)	5 (Level 5: growth control rate is above 85%)
Cn1nnnc1NC(=O)c1ccnc(-c2ncc(C#N)cn2)c1Cl [Compound 1-163]	5 (Level 5: growth control rate is above 85%)	5 (Level 5: growth control rate is above 85%)	5 (Level 5: growth control rate is above 85%)	5 (Level 5: growth control rate is above 85%)
Cn1nnnc1NC(=O)c1ccnc(-c2ncc(F)cn2)c1Cl [Compound 1-164]	5 (Level 5: growth control rate is above 85%)	5 (Level 5: growth control rate is above 85%)	5 (Level 5: growth control rate is above 85%)	5 (Level 5: growth control rate is above 85%)
Cn1nnnc1NC(=O)c1ccnc(-c2ccnc(C#N)n2)c1Cl [Compound 1-165]	5 (Level 5: growth control rate is above 85%)	5 (Level 5: growth control rate is above 85%)	5 (Level 5: growth control rate is above 85%)	5 (Level 5: growth control rate is above 85%)
Cn1nnnc1NC(=O)c1ccnc(-n2cc(F)cn2)c1Cl [Compound 1-166]	5 (Level 5: growth control rate is above 85%)	5 (Level 5: growth control rate is above 85%)	5 (Level 5: growth control rate is above 85%)	5 (Level 5: growth control rate is above 85%)
Cn1nnnc1NC(=O)c1ccnc(-c2cn[nH]c2)c1Cl [Compound 1-167]	5 (Level 5: growth control rate is above 85%)	5 (Level 5: growth control rate is above 85%)	5 (Level 5: growth control rate is above 85%)	5 (Level 5: growth control rate is above 85%)
